According to US20210106703A1, “RADIOIMMUNOCONJUGATES IN COMBINATION WITH OTHER DRUGS AS TREATMENT AGAINST NHL” (Nordic Nanovector ASA, priority 2017, published 2021):
Where two headings read alike, the source gives them in different places.

How the values were obtained:
Assay type in all cases: cell-based, human
[1] = tested on: U-2932 cells; assay: Real Time Glo viability screen and validation, Betalutin with PARP or cell cycle kinase inhibitors (Examples 4, 7); conditions: U-2932, validation screen, 0-1280 nM
[2] = tested on: Ramos cells; assay: Proliferation study with Wee-1/Myt-1 inhibitors and ^177Lu-lilotomab; conditions: inhibitor 1 μM + ^177Lu-lilotomab 6 MBq/mL (RIT) for 18 h, 6 days after start
Method: (§1) Cells were treated for 18 h with 1 μM of the selective Wee-1 kinase inhibitor MK-1775 (Selleckchem, Houston, USA) or of the dual Wee-1/Myt-1 inhibitor PD-166285 (EMD Merck Millipore/Calbiochem, Molsheim, France) alone or in combination with 6 MBq/mL, 2 MBq/mL and 0.5 MB/mL of ^177Lu-lilotomab for Ramos, Rec-1 and DOHH2 cells respectively. At different times after start of incubation, proteins were extracted to measure the CDK1 phosphorylation levels, in parallel, proliferation was determined and at 18 h and 24 h after start of incubation, the percentage of cells in G2/M was assessed (experiments were performed three time except the cell cycle analysis).
(§2) The activity used for the treatment with ^177Lu-lilotomab was chosen to decrease the proliferation to about 50% for the three cell lines compared with non-treated cells.
(§3) Inhibition of G2/M cell cycle arrest radiosensitises radioresistant Ramos model. The Bliss independence mathematical model was next used to investigate the role of MK-1775 or PD-166285 on the response to ^177Lu-lilotomab. A theoretical therapeutic efficacy was calculated for the two combinations (MK-1775 or PD-166285) in the three cell lines. And the comparison between the experimental and the theoretical curves was done.
(§4) Theoretical efficacyRIT+inhib=EfficacyRIT+Efficacyinhib−(EfficacyRIT×Efficacyinhib)

[3] = tested on: Rec-1 cells; assay: as above; conditions: Rec-1, inhibitor 1 μM + ^177Lu-lilotomab 2 MBq/mL for 18 h, versus either alone
Method: as §1, §2, §3, §4

[4] = tested on: SUDHL4 cells; assay: Alamar Blue cytotoxicity study; conditions: for IC50: Homo sapiens; for Combination Index (Chou-Talalay): 120 h
Method: Cells were incubated with 0.25, 0.5, 1, 2.5 or 5 μg/ml of Humalutin in cell culture flasks and incubated at 37° C./5% CO2. After 18-20 hours cells were washed and resuspended in fresh medium. Cell bound activity after washing was measured using a calibrated gamma detector (Cobra II auto-gamma detector, Packard Instrument Company, Meriden, Conn., USA). Cell concentration and viability was also measured after washing using Guava ViaCount Cell Dispersal Reagent for Flow Cytometry (Merck GaA, Darmstadt, Germany) and measured in a Guava EasyCyte 12HT (Merck KGaA, Darmstadt, Germany) to determine how well the cells survived the incubation. Cells were seeded in 96 well plates. […]
(§5) Cells were treated with either Humalutin, venetoclax or a combination of both and seeded into 96 well-plates. At each time point after treatment, cells were incubated with Alamar Blue (Thermo Fisher, DALL1100) for 4 hours and fluorescence measurements were performed using a multiplate reader Fluoroskan ascent FL to assess cell proliferation and viability. All experiments were done in duplicates using 2 samples in each experiment. Data were normalized to the untreated controls.
Cells were incubated with either 0, 0.5 μg/ml or 1 μg/ml Humalutin and the same procedure as described before for treatment with Humalutin alone and venetoclax alone was followed.
The Chou-Talalay model was used for synergy calculations using the Compusyn software. R (goodness of fit) was calculated for the individual treatments and should be over 0.90 in in vitro culture experiments in order to use with confidence the calculated combination index (CI). The CI is an indication of synergy: 0-0.9 is considered synergy. Synergysm grading was used as described in WO2006004917A2.
(§6) Cells were incubated with 0.25, 0.5, 1, 2.5 or 5 μg/ml of Humalutin in cell culture flasks and incubated at 37° C./5% CO2. After 18-20 hours cells were washed and resuspended in fresh medium. Cell bound activity after washing was measured using a calibrated gamma detector (Cobra II auto-gamma detector, Packard Instrument Company, Meriden, Conn., USA). Cell concentration and viability were also measured after washing using Guava ViaCount Cell Dispersal Reagent for Flow Cytometry (Merck GaA, Darmstadt, Germany) and measured in a Guava EasyCyte 12HT (Merck KGaA, Darmstadt, Germany) to determine how well the cells survived the incubation. Cells were seeded in 96 well plates. Alamar blue viability measurements were performed 120 h after seeding.
Cells were incubated with either 0 (control), 0.5 μg/ml or 1 μg/ml Humalutin for 18 to 20 hours. Cells were then washed and resuspended in fresh medium.

[5] = tested on: SUDHL-6 cells; assay: Alamar Blue cytotoxicity study; conditions: for Combination Index (Chou-Talalay): 120 h
Method: as §5, §6
Cells were incubated with either 0 (control), 0.5 μg/ml or 1 μg/ml Humalutin for 18 to 20 hours. Cells were then washed and resuspended in fresh medium. Cell bound activity after washing was measured using a calibrated gamma detector (Cobra II auto-gamma detector, Packard Instrument Company, Meriden, Conn., USA). Cell concentration and viability were also measured after washing using Guava ViaCount Cell Dispersal Reagent for Flow Cytometry (Merck GaA, Darmstadt, Germany) and measured in a Guava EasyCyte 12HT (Merck KGaA, Darmstadt, Germany) to determine how well the cells survived the incubation. […] Cytotoxic effect was measured using Alamar blue cell viability assay.
The Chou-Talalay model was used for synergy calculations using the Compusyn software. R (goodness of fit) was calculated for the individual treatments and should be over 0.90 in in vitro culture experiments in order to use the calculated combination index (CI) with confidence. The CI is an indication of synergy: 0-0.9 is considered synergy. Synergism grading was used as described in Table 13, WO2006004917A2.

Nc1nc(Nc2ccc(S(N)(=O)=O)cc2)nn1C(=O)c1c(F)cccc1F [JNJ-7706621]
Effect of monotreatment on proliferation [1]: not evident at concentrations below 160 nM

C=CCn1c(=O)c2cnc(Nc3ccc(N4CCN(C)CC4)cc3)nc2n1-c1cccc(C(C)(C)O)n1 [MK-1775]
Proliferation (treated/untreated cells) [2]: ~10%
Proliferation (treated/untreated cells) [3]: statistically reduced the proliferation

CC1(C)CCC(CN2CCN(c3ccc(C(=O)NS(=O)(=O)c4ccc(NCC5CCOCC5)c([N+](=O)[O-])c4)c(Oc4cnc5[nH]ccc5c4)c3)CC2)=C(c2ccc(Cl)cc2)C1 [venetoclax]
IC50 ([4]; SU-DHL-4, read-out: IC50 at 120 h, SUDHL-4, 120 h incubation after seeding): 2420 nM
IC50 ([4]; SU-DHL-4, SUDHL4, 72 h incubation after seeding, read-out: IC50): 3660 nM
Combination Index (Chou-Talalay) ([4]; SUDHL-4, drug 10 μM + Humalutin 0.5 μg/ml): 2.43
Combination Index (Chou-Talalay) ([4]; SUDHL-4, drug 10 μM + Humalutin 1 μg/ml): 0.09
Combination Index (Chou-Talalay) ([4]; SUDHL-4, drug 40 μM + Humalutin 0.5 μg/ml): 3.77
Combination Index (Chou-Talalay) ([4]; SUDHL-4, drug 40 μM + Humalutin 1 μg/ml): 0.11
Combination Index (Chou-Talalay) ([4]; SUDHL-4, drug 80 μM + Humalutin 0.5 μg/ml): 0.50
Combination Index (Chou-Talalay) ([4]; SUDHL-4, drug 80 μM + Humalutin 1 μg/ml): 0.06
Combination Index (Chou-Talalay) ([4]; SUDHL-4, drug 100 μM + Humalutin 0.5 μg/ml): 0.83
Combination Index (Chou-Talalay) ([4]; SUDHL-4, drug 100 μM + Humalutin 1 μg/ml): 0.02
Combination Index (Chou-Talalay) ([4]; SUDHL-4, venetoclax 0.25 + Humalutin 0.5 μg/ml): 0.01
Combination Index (Chou-Talalay) ([4]; SUDHL-4, venetoclax 0.25 + Humalutin 1 μg/ml): 0.06
Combination Index (Chou-Talalay) ([4]; SUDHL-4, venetoclax 0.5 + Humalutin 0.5 μg/ml): 0.003
Combination Index (Chou-Talalay) ([4]; SUDHL-4, venetoclax 0.5 + Humalutin 1 μg/ml): 0.01
Combination Index (Chou-Talalay) ([4]; SUDHL-4, venetoclax 1 + Humalutin 0.5 μg/ml): 0.01
Combination Index (Chou-Talalay) ([4]; SUDHL-4, venetoclax 1 + Humalutin 1 μg/ml): 0.09
Combination Index (Chou-Talalay) ([4]; SUDHL-4, venetoclax 2.5 + Humalutin 0.5 μg/ml): 0.02
Combination Index (Chou-Talalay) ([4]; SUDHL-4, venetoclax 2.5 + Humalutin 1 μg/ml): 0.12
IC50 ([5]; Homo sapiens, SU-DHL-6, read-out: IC50 at 120 h, SUDHL-6, 120 h incubation after seeding): 1160 nM
Combination Index (Chou-Talalay) ([5]; SUDHL-6, venetoclax 0.25 + Humalutin 0.5 μg/ml): 0.63
Combination Index (Chou-Talalay) ([5]; SUDHL-6, venetoclax 0.25 + Humalutin 1 μg/ml): 0.82
Combination Index (Chou-Talalay) ([5]; SUDHL-6, venetoclax 0.5 + Humalutin 0.5 μg/ml): 0.14
Combination Index (Chou-Talalay) ([5]; SUDHL-6, venetoclax 0.5 + Humalutin 1 μg/ml): 0.28
Combination Index (Chou-Talalay) ([5]; SUDHL-6, venetoclax 1 + Humalutin 0.5 μg/ml): 0.71
Combination Index (Chou-Talalay) ([5]; SUDHL-6, venetoclax 1 + Humalutin 1 μg/ml): 0.41
Combination Index (Chou-Talalay) ([5]; SUDHL-6, venetoclax 2.5 + Humalutin 0.5 μg/ml): 0.47
Combination Index (Chou-Talalay) ([5]; SUDHL-6, venetoclax 2.5 + Humalutin 1 μg/ml): 0.41
